{"source": "paper PMC3826262", "about": "(MedChemComm, 2013)", "key": {"NVPro": {"target": "NVPro (Norovirus, UniProt Q83883)", "assay": "Inhibition of recombinant NVPro", "assay_type": "biochemical", "conditions": "for fold less active than compound 1: ratio of Ki vs compound 1; for Ki: Table 1, recombinant NVPro"}, "HOVPro": {"target": "HOVPro (Norovirus Hu/Houston/TCH186/2002/US (Norovirus GII.4), UniProt A9YYE3)", "assay": "Inhibition of Houston virus protease", "assay_type": "biochemical", "conditions": "HOVPro vs NVPro Ki"}}, "note": "Non-standard residues stand in square brackets, D forms with d. Residues, ends and D or L forms follow the SMILES beside them. *: point of attachment. Cbz = O=C(OCc1ccccc1)*; Dap = NC[C@H](N)C(=O)O", "data": [{"smiles": "CC(C)C[C@H](NC(=O)OCc1ccccc1)C(=O)N[C@@H](Cc1ccccc1)C(=O)N[C@H](C=O)CCC(=O)N(C)C", "note": "[compound 1, Z-Leu-Phe-Gln(diMe)-CHO] (Cbz-Leu-Phe-Glu(NMe2)-aldehyde)", "values": [{"measurement": "fold more active than compound 8", "setting": "NVPro; NVPro, ratio of Ki", "value": 380, "unit": "fold"}, {"measurement": "fold more active than compounds 5 and 2", "setting": "NVPro; NVPro, ratio of Ki", "value": "3-5 fold"}, {"measurement": "fold activity reduction against HOVPro as compared with NVPro", "setting": "HOVPro", "value": "> 60", "unit": "fold"}]}, {"smiles": "CC(=O)NC[C@@H](C=O)NC(=O)[C@H](Cc1ccccc1)NC(=O)[C@H](CC(C)C)NC(=O)OCc1ccccc1", "note": "[compound 3] (Cbz-Leu-Phe-[Dap](Ac)-aldehyde)", "values": [{"measurement": "fold less active than compound 1", "setting": "NVPro; NVPro", "value": "~ 12 fold"}]}, {"smiles": "CC(=O)N[C@@H](CC(C)C)C(=O)N[C@@H](Cc1ccccc1)C(=O)N[C@H](C=O)CCC(=O)N(C)C", "note": "[compound 9] (Ac-Leu-Phe-Glu(NMe2)-aldehyde)", "values": [{"measurement": "fold less active than compound 1", "setting": "NVPro; NVPro", "value": "> 300", "unit": "fold"}]}, {"smiles": "CC(=O)[C@H](CCC(=O)N(C)C)NC(=O)[C@H](Cc1ccccc1)NC(=O)[C@H](CC(C)C)NC(=O)OCc1ccccc1", "note": "[compound 10]", "values": [{"measurement": "fold less active than compound 1", "setting": "NVPro; NVPro", "value": "1,200 fold"}]}, {"smiles": "CCOC(=O)/C=C/[C@H](CCC(=O)N(C)C)NC(=O)[C@H](Cc1ccccc1)NC(=O)[C@H](CC(C)C)NC(=O)OCc1ccccc1", "note": "[compound 11]", "values": [{"measurement": "inhibitory activity against NVPro", "setting": "NVPro; NVPro", "value": "essentially inactive"}, {"measurement": "Ki", "setting": "NVPro", "value": "inactive"}]}, {"smiles": "CCOC(=O)/C=C/[C@H](CCC(N)=O)NC(=O)[C@H](Cc1ccccc1)NC(=O)[C@H](CC(C)C)NC(=O)OCc1ccccc1", "note": "[compound 12]", "values": [{"measurement": "inhibitory activity against NVPro", "setting": "NVPro; NVPro", "value": "Neither 12 nor 13 exhibits inhibitory activity"}, {"measurement": "Ki", "setting": "NVPro", "value": "inactive"}]}, {"smiles": "CCOC(=O)/C=C/[C@H](CNC(C)=O)NC(=O)[C@H](Cc1ccccc1)NC(=O)[C@H](CC(C)C)NC(=O)OCc1ccccc1", "note": "[compound 13]", "values": [{"measurement": "inhibitory activity against NVPro", "setting": "NVPro; NVPro", "value": "Neither 12 nor 13 exhibits inhibitory activity"}, {"measurement": "Ki", "setting": "NVPro", "value": "inactive"}]}, {"smiles": "CNC(=O)CC[C@@H](C=O)NC(=O)[C@H](Cc1ccccc1)NC(=O)[C@H](CC(C)C)NC(=O)OCc1ccccc1", "note": "[compound 14] (Cbz-Leu-Phe-Glu(NHMe)-aldehyde)", "values": [{"measurement": "fold less active than compound 1", "setting": "NVPro; NVPro", "value": 42, "unit": "fold"}]}, {"smiles": "CC(C)C[C@H](NC(=O)OCc1ccccc1)C(=O)N[C@@H](Cc1ccccc1)C(=O)N[C@H](C=O)CCC(=O)NC1CC1", "note": "[compound 15]", "values": [{"measurement": "fold improved inhibition as compared to compound 14", "setting": "NVPro; NVPro, ratio of Ki", "value": "~ 3 fold"}]}]}
